{
  "source": "ChEMBL document CHEMBL4371077",
  "about": "“Cyclic tripeptide-based potent human SIRT7 inhibitors” (Bioorg Med Chem Lett, 2019)",
  "key": {"[1]": {"biological_target": "T1, NAD-dependent protein deacetylase sirtuin-7 (Homo sapiens, UniProt Q9NRC8)", "T1 sequence (Q9NRC8 whole entry)": "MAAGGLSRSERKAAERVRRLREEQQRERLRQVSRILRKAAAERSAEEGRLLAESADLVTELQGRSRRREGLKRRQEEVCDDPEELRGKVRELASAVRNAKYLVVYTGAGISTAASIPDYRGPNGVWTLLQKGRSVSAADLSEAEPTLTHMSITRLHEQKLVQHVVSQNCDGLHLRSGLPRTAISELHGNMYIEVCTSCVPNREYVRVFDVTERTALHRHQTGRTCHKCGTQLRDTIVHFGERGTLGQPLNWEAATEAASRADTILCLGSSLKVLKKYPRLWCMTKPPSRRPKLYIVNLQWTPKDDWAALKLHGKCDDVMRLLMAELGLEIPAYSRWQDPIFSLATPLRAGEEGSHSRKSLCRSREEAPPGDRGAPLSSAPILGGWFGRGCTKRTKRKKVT", "experiment": "Inhibition of tRNA-activated deacetylation activity of recombinant human full length N-terminal His6-tagged SIRT7 expressed in Escherichia coli using H2N-GGKAPR-[Nepsilon-acetyl-lysine]-QLATKA-CONH2 as substrate measured after 30 mins by HPLC analysis"}, "[2]": {"biological_target": "T2, NAD-dependent protein deacetylase sirtuin-1 (Homo sapiens, UniProt Q96EB6)", "T2 sequence (Q96EB6 whole entry)": "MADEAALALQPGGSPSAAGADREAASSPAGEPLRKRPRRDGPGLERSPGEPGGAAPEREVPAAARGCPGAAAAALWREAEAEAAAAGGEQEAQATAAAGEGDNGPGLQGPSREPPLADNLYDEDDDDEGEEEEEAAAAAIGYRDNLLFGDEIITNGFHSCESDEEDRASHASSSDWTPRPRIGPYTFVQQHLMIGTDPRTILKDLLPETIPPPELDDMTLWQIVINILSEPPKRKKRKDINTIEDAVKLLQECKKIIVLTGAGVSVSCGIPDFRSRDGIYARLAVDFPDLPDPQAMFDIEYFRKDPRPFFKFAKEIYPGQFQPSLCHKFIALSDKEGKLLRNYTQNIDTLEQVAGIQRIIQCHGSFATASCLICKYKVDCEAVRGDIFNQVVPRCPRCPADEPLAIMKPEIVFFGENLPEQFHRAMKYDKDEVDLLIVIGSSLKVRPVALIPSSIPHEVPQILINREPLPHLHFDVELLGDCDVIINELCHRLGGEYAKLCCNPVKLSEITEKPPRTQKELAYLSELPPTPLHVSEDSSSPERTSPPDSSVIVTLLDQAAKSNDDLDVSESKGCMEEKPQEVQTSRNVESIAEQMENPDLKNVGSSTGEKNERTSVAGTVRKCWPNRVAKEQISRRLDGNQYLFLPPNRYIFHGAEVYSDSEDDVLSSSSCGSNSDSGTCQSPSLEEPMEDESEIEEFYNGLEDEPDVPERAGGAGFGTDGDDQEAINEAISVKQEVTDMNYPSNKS", "experiment": "Inhibition of recombinant human SIRT1 deacetylase activity using H2N-HK-[Nepsilon-acetyl-lysine]-LM-COOH as substrate measured after 10 mins by HPLC analysis"}, "[3]": {"biological_target": "T3, NAD-dependent protein deacetylase sirtuin-2 (Homo sapiens, UniProt Q8IXJ6)", "T3 sequence (Q8IXJ6 whole entry)": "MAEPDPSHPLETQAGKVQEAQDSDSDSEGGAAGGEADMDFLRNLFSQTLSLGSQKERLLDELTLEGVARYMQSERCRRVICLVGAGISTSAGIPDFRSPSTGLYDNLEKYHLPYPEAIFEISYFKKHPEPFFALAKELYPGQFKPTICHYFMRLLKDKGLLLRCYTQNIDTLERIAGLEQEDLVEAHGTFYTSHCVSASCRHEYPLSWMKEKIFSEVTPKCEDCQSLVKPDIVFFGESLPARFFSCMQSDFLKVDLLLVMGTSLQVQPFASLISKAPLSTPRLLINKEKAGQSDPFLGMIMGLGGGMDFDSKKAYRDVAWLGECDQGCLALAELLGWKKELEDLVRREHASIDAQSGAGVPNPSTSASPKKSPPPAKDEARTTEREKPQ", "experiment": "Inhibition of deacetylation activity of recombinant human N-terminal His6-tagged SIRT2 (2 to 389 residues) expressed in Escherichia coli using H2N-HK-[Nepsilon-acetyl-lysine]-LM-COOH as substrate measured after 12 mins by HPLC analysis"}, "[4]": {"biological_target": "T4, NAD-dependent protein deacetylase sirtuin-3, mitochondrial (Homo sapiens, UniProt Q9NTG7)", "T4 sequence (Q9NTG7 whole entry)": "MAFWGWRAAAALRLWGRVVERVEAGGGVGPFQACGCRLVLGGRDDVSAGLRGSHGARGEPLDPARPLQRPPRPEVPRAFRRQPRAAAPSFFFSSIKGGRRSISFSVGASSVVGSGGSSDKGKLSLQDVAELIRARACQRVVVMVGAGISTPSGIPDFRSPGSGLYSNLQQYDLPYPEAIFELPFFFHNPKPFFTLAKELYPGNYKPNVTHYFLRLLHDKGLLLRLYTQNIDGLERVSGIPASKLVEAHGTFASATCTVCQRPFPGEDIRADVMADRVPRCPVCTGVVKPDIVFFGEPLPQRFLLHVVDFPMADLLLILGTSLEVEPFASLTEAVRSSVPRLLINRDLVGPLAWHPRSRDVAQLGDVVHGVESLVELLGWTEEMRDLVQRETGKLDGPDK", "experiment": "Inhibition of deacetylation activity of recombinant human N-terminal His6-tagged SIRT3 (101 to 399 residues) expressed in Escherichia coli using H2N-HK-[Nepsilon-acetyl-lysine]-LM-COOH as substrate measured after 10 mins by HPLC analysis"}, "[5]": {"biological_target": "NAD-dependent protein deacylase sirtuin-6 (Homo sapiens, UniProt Q8N6T7)", "sequence (Q8N6T7 whole entry)": "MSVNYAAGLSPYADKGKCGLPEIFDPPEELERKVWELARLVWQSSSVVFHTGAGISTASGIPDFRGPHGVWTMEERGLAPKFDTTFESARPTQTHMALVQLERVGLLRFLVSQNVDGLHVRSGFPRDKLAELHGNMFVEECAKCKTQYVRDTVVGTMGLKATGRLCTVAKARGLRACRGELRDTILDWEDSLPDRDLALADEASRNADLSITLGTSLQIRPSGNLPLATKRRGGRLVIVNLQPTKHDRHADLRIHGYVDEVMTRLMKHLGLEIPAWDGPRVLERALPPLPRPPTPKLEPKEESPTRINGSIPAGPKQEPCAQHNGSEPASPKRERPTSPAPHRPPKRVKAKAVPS", "experiment": "Inhibition of demyristoylation activity of recombinant human full length N-terminal His6-tagged SIRT6 expressed in Escherichia coli using H2N-EALPK-[Nepsilon-myristoyl-lysine]-TGGPQ-CONH2 as substrate measured after 12 mins by HPLC analysis"}, "[6]": {"biological_target": "NAD-dependent protein deacylase sirtuin-5, mitochondrial (Homo sapiens, UniProt Q9NXA8)", "sequence (Q9NXA8 whole entry)": "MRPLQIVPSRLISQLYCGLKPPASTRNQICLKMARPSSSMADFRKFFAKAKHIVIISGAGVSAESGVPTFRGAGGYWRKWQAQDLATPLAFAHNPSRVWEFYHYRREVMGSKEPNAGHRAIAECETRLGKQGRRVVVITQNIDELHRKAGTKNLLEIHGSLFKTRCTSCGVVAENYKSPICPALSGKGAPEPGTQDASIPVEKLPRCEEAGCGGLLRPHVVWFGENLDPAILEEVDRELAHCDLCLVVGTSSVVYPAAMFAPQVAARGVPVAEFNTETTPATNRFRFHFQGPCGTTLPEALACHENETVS", "experiment": "Inhibition of desuccinylation activity of recombinant human full length N-terminal GST-tagged SIRT5 expressed in Escherichia coli using CH3CONH-AR-[Nepsilon-succinyl-lysine]-ST-CONH2 as substrate measured after 5 mins by HPLC analysis"}, "[7]": {"experiment": "Proteolytic stability of the compound assessed as Streptomyces griseus pronase-mediated compound hydrolysis by measuring parent compound remaining after 6 mins by HPLC method", "type": "ADME", "details": "read-out: Stability"}},
  "note": "Residues, ends and D or L forms follow the SMILES beside them.",
  "data": [
    {"smiles": "CCCCCCCCCCCCNC(=O)CCCCC[C@@H]1NC(=O)[C@H](CCCNC(=N)N)NC(=O)CNC(=O)CCC(=O)NCC(=O)NCCCC[C@@H](C(N)=O)NC1=O", "values": [
      {"measurement": "IC50", "setting": "[1]", "value": 5, "unit": "µM"},
      {"measurement": "IC50", "setting": "[2]", "value": 4.3, "unit": "µM"},
      {"measurement": "IC50", "setting": "[3]", "value": 0.55, "unit": "µM"},
      {"measurement": "IC50", "setting": "[4]", "value": 4.2, "unit": "µM"},
      {"measurement": "IC50", "setting": "[5]", "value": 11.2, "unit": "µM"},
      {"measurement": "IC50", "setting": "[6]", "value": "> 200", "unit": "µM"},
      {"measurement": "remaining at 0.1 h", "setting": "[7]", "value": 89.9, "unit": "%"}
    ]},
    {"smiles": "CCCCCCCCCCCCNC(=S)NCCCC[C@@H]1NC(=O)[C@H](CCCNC(=N)N)NC(=O)CNC(=O)CCC(=O)NCC(=O)NCCCC[C@@H](C(N)=O)NC1=O", "values": [
      {"measurement": "IC50", "setting": "[1]", "value": 11.1, "unit": "µM"},
      {"measurement": "IC50", "setting": "[2]", "value": 1.8, "unit": "µM"},
      {"measurement": "IC50", "setting": "[3]", "value": 10.3, "unit": "µM"},
      {"measurement": "IC50", "setting": "[4]", "value": 1.6, "unit": "µM"},
      {"measurement": "IC50", "setting": "[5]", "value": 7.9, "unit": "µM"},
      {"measurement": "IC50", "setting": "[6]", "value": "> 150", "unit": "µM"},
      {"measurement": "remaining at 0.1 h", "setting": "[7]", "value": 55.7, "unit": "%"}
    ]},
    {"smiles": "CCCCCCCCCCCCCCNC(=S)NCCCC[C@@H]1NC(=O)[C@H](CCCNC(=N)N)NC(=O)CNC(=O)CCC(=O)NCC(=O)NCCCC[C@@H](C(N)=O)NC1=O", "values": [
      {"measurement": "IC50", "setting": "[1]", "value": 85.3, "unit": "µM"}
    ]},
    {"smiles": "CSCC[C@H](NC(=O)[C@H](CC(C)C)NC(=O)[C@H](CCCCNC(C)=O)NC(=O)[C@H](CCCCN)NC(=O)[C@@H](N)Cc1cnc[nH]1)C(=O)O", "note": "(H-HKK(Ac)LM-OH)", "values": [
      {"measurement": "remaining at 0.1 h", "setting": "[7]", "value": 51.1, "unit": "%"}
    ]}
  ]
}
